Measured values reported in patent US12403137B2, “Compounds and methods of use” (Tango Therapeutics, Inc., priority 2019, dated 2025).

Columns and labels:
[1] = test system: HAP1 MTAP-deleted cell line; experiment: SDMA in-cell western assay, HAP1 MTAP-deleted; assay type: cell-based; settings: for IC50: Homo sapiens, HAP1 MTAP-deleted (MTAP-null) cell line; for MTAP Intact/Deleted Ratio: IC50 ratio HAP1 MTAP-intact / HAP1 MTAP-deleted, >=3 fold considered MTAP-selective
Description: (§1) Table 1 also indicates IC50 values in an MTAP-isogenic cell line pair for exemplary compounds in an SDMA in-cell western assay (columns 7-8). HAP1 MTAP-intact is a cell line in which endogenous levels of MTAP are expressed, and HAP1 MTAP-deleted is an MTAP-null cell line. For Table 1, “a*” and “aa*” indicates an IC50 of <1 μM, “b*” and “bb*” indicates an IC50 equal to or greater than 1 μM but less than 10 μM, and “c*” and “cc*” indicates an IC50 of greater than or equal to 10 μM in the HAP1 MTAP-intact and the HAP1 MTAP-deleted assays, respectively. In column 9, “A*” indicates an IC50 ratio greater than or equal to 10 fold between the IC50 in the HAP1 MTAP-intact cell line and the HAP1 MTAP-deleted cell line; “B*” indicates an IC50 ratio greater than or equal to 3 fold but lower than 10 fold between the IC50 in the HAP1 MTAP-intact cell line and the HAP1 MTAP-deleted cell line; “C*” indicates an IC50 ratio of less than 3 fold between the IC50 in the HAP1 MTAP-intact cell line and the HAP1 MTAP-deleted cell line. Compounds with a ratio in the SDMA in-cell western assay of equal to or greater than 3 fold are considered MTAP-selective.

PRMT5 [2] = biological target: T1, PRMT5 (Homo sapiens, UniProt O14744); experiment: PRMT5 inhibition assay with no cofactor; assay type: biochemical; settings: against PRMT5 with no cofactor; read-out: No Co-factor IC50
T1 construct: purchased Viva (custom protein)

PRMT5 [3] = biological target: T1, PRMT5; experiment: PRMT5 inhibition assay with MTA as cofactor; assay type: biochemical; settings: for IC50: against PRMT5 with MTA as cofactor; for SAM/MTA Ratio: ratio of Ki in the presence of SAM to Ki in the presence of MTA, Ki=IC50/1.5 (SAM), Ki=IC50/13.5 (MTA)
From the text: (§2) The Ki values can be calculated from the IC50 values as described in the Examples section. As detailed in the Examples section, for the assay performed in the presence of SAM, IC50=Ki×1.5 (Ki=IC50/1.5). For the assay performed in the presence of MTA, IC50=Ki×13.5 (Ki=IC50/13.5). Column 6 indicates the ratio between the Ki of compounds in the presence of SAM and the Ki of compounds in the presence of MTA

[4] = test system: HAP1 MTAP-intact cell line; experiment: SDMA in-cell western assay, HAP1 MTAP-intact; assay type: cell-based; settings: Homo sapiens
Description: as §1

PRMT5 [5] = biological target: T1, PRMT5; experiment: PRMT5 inhibition assay with SAM as cofactor; assay type: biochemical; settings: against PRMT5 in the presence of SAM as cofactor
From the text: as §2

T1 sequence (O14744 whole entry): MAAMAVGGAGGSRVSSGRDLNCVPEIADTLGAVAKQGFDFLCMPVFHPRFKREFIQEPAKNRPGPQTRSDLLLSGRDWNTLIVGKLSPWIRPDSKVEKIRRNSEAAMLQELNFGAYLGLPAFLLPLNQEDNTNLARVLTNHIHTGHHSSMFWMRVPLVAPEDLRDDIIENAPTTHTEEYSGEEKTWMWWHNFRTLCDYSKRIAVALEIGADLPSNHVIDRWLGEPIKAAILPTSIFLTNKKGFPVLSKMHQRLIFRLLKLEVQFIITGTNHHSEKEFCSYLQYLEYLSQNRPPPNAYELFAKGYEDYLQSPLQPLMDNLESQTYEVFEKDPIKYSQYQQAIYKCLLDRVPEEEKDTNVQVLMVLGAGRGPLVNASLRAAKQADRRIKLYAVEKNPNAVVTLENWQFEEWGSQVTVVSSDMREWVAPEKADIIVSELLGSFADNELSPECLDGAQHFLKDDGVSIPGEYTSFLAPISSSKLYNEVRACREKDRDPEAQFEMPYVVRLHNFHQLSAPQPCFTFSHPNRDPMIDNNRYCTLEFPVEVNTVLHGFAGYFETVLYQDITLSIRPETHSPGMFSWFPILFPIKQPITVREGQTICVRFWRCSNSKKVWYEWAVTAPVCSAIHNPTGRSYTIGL
T1 sequence (Q9BQA1 whole entry partner): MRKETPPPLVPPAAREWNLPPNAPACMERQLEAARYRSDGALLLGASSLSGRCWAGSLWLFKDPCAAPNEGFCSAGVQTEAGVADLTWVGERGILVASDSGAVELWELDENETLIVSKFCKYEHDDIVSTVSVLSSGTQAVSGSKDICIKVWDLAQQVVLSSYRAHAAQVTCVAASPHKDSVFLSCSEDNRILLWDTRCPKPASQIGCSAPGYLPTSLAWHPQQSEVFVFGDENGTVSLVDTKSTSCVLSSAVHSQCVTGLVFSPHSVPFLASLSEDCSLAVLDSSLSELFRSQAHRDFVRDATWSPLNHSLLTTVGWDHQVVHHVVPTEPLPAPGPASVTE

SMILES | IC50 [1] [nM] | MTAP Intact/Deleted Ratio [1] | IC50 (PRMT5 [2]) [nM] | IC50 (PRMT5 [3]) [nM] | SAM/MTA Ratio (PRMT5 [3]) | IC50 [4] [nM] | IC50 (PRMT5 [5]) [nM]
CCOc1cc(C(=O)N2[C@@H]3CCC[C@H]2COC3)ccc1C(=O)NC[C@@H](O)[C@@H]1Cc2ccc(OCc3ccnn3C)cc2CN1 [Compound 6, 4-((1R,5S)-3-oxa-9-azabicyclo[3.3.1]nonane-9-carbonyl)-2-ethoxy-N—((R)-2-hydroxy-2-((S)-7-((1-methyl-1H-pyrazol-5-yl)methoxy)-1,2,3,4-tetrahydroisoquinolin-3-yl)ethyl)benzamide] | < 1000 | C* (an IC50 ratio of less than 3 fold between the IC50 in the HAP1 MTAP-intact cell line and the HAP1 MTAP-deleted cell line) | 500 to 5000 | 50 to 500 | A (a Ki ratio greater than or equal to 10 fold between the Ki in the presence of SAM and the Ki in the presence of MTA) | < 1000 | 50 to 500
O=C(NC[C@@H](O)[C@@H]1Cc2ccc(OCc3cnco3)cc2CN1)c1ccc(C(=O)N2[C@@H]3CCC[C@H]2COC3)cc1 [Compound 7, 4-((1R,5S)-3-oxa-9-azabicyclo[3.3.1]nonane-9-carbonyl)-N—((R)-2-hydroxy-2-((S)-7-(oxazol-5-ylmethoxy)-1,2,3,4-tetrahydroisoquinolin-3-yl)ethyl)benzamide] | 1000 to 10000 | B* (an IC50 ratio greater than or equal to 3 fold but lower than 10 fold between the IC50 in the HAP1 MTAP-intact cell line and the HAP1 MTAP-deleted cell line) | 500 to 5000 | 50 to 500 | A (a Ki ratio greater than or equal to 10 fold between the Ki in the presence of SAM and the Ki in the presence of MTA) | ≥ 10000 | 50 to 500
Cc1ncoc1COc1ccc2c(c1)CN[C@H]([C@H](O)CNC(=O)c1ccc(C(=O)N3[C@@H]4CCC[C@H]3COC4)cc1)C2 [Compound 8, 4-((1R,5S)-3-oxa-9-azabicyclo[3.3.1]nonane-9-carbonyl)-N—((R)-2-hydroxy-2-((S)-7-((4-methyloxazol-5-yl)methoxy)-1,2,3,4-tetrahydroisoquinolin-3-yl)ethyl)benzamide] | < 1000 | A* (an IC50 ratio greater than or equal to 10 fold between the IC50 in the HAP1 MTAP-intact cell line and the HAP1 MTAP-deleted cell line) | 50 to 500 | 50 to 500 | A (a Ki ratio greater than or equal to 10 fold between the Ki in the presence of SAM and the Ki in the presence of MTA) | 1000 to 10000 | 50 to 500
Cn1nccc1COc1ccc2c(c1)CN[C@H]([C@H](O)CNC(=O)c1ccc(C(=O)N3[C@@H]4CCC[C@H]3COC4)cc1)C2 [Compound 9, 4-((1R,5S)-3-oxa-9-azabicyclo[3.3.1]nonane-9-carbonyl)-N—((R)-2-hydroxy-2-((S)-7-((1-methyl-1H-pyrazol-5-yl)methoxy)-1,2,3,4-tetrahydroisoquinolin-3-yl)ethyl)benzamide] | 1000 to 10000 | B* (an IC50 ratio greater than or equal to 3 fold but lower than 10 fold between the IC50 in the HAP1 MTAP-intact cell line and the HAP1 MTAP-deleted cell line) | 500 to 5000 | 50 to 500 | A (a Ki ratio greater than or equal to 10 fold between the Ki in the presence of SAM and the Ki in the presence of MTA) | ≥ 10000 | 50 to 500
CCOc1cc(C(=O)N2[C@@H]3CCC[C@H]2COC3)ccc1C(=O)NC[C@@H](O)[C@@H]1Cc2ccc(OCc3ocnc3C)cc2CN1 [Compound 10, 4-((1R,5S)-3-oxa-9-azabicyclo[3.3.1]nonane-9-carbonyl)-2-ethoxy-N—((R)-2-hydroxy-2-((S)-7-((4-methyloxazol-5-yl)methoxy)-1,2,3,4-tetrahydroisoquinolin-3-yl)ethyl)benzamide] | < 1000 | A* (an IC50 ratio greater than or equal to 10 fold between the IC50 in the HAP1 MTAP-intact cell line and the HAP1 MTAP-deleted cell line) | 50 to 500 | < 50 | A (a Ki ratio greater than or equal to 10 fold between the Ki in the presence of SAM and the Ki in the presence of MTA) | 1000 to 10000 | 50 to 500
CCOc1cc(C(=O)N2C3CCC2COC3)ccc1C(=O)NC[C@@H](O)[C@@H]1Cc2ccc(OCc3cnco3)cc2CN1 [Compound 11, 4-(3-oxa-8-azabicyclo[3.2.1]octane-8-carbonyl)-2-ethoxy-N—((R)-2-hydroxy-2-((S)-7-(oxazol-5-ylmethoxy)-1,2,3,4-tetrahydroisoquinolin-3-yl)ethyl)benzamide] | < 1000 | B* (an IC50 ratio greater than or equal to 3 fold but lower than 10 fold between the IC50 in the HAP1 MTAP-intact cell line and the HAP1 MTAP-deleted cell line) | 500 to 5000 | 50 to 500 | A (a Ki ratio greater than or equal to 10 fold between the Ki in the presence of SAM and the Ki in the presence of MTA) | 1000 to 10000 | 50 to 500
CCOc1cc(C(=O)N2C3CCC2COC3)ccc1C(=O)NC[C@@H](O)[C@@H]1Cc2ccc(OCc3ocnc3C)cc2CN1 [Compound 12, 4-(3-oxa-8-azabicyclo[3.2.1]octane-8-carbonyl)-2-ethoxy-N—((R)-2-hydroxy-2-((S)-7-((4-methyloxazol-5-yl)methoxy)-1,2,3,4-tetrahydroisoquinolin-3-yl)ethyl)benzamide] | < 1000 | B* (an IC50 ratio greater than or equal to 3 fold but lower than 10 fold between the IC50 in the HAP1 MTAP-intact cell line and the HAP1 MTAP-deleted cell line) | 500 to 5000 | 50 to 500 | A (a Ki ratio greater than or equal to 10 fold between the Ki in the presence of SAM and the Ki in the presence of MTA) | < 1000 | 50 to 500
CCOc1cc(C(=O)N2[C@@H]3CCC[C@H]2COC3)ccc1C(=O)NC[C@@H](O)[C@@H]1Cc2ccc(OCc3cnco3)cc2CN1 [Compound 13, 4-((1R,5S)-3-oxa-9-azabicyclo[3.3.1]nonane-9-carbonyl)-2-ethoxy-N—((R)-2-hydroxy-2-((S)-7-(oxazol-5-ylmethoxy)-1,2,3,4-tetrahydroisoquinolin-3-yl)ethyl)benzamide] | < 1000 | A* (an IC50 ratio greater than or equal to 10 fold between the IC50 in the HAP1 MTAP-intact cell line and the HAP1 MTAP-deleted cell line) | 500 to 5000 | 50 to 500 | A (a Ki ratio greater than or equal to 10 fold between the Ki in the presence of SAM and the Ki in the presence of MTA) | 1000 to 10000 | 50 to 500
CCOc1nc(N2CCN(C(=O)OC)CC2)ccc1C(=O)NC[C@@H](O)[C@@H]1Cc2ccc(OCc3cnco3)cc2CN1 [Compound 16, methyl 4-(6-ethoxy-5-(((R)-2-hydroxy-2-((S)-7-(oxazol-5-ylmethoxy)-1,2,3,4-tetrahydroisoquinolin-3-yl)ethyl)carbamoyl)pyridin-2-yl)piperazine-1-carboxylate] | < 1000 | B* (an IC50 ratio greater than or equal to 3 fold but lower than 10 fold between the IC50 in the HAP1 MTAP-intact cell line and the HAP1 MTAP-deleted cell line) | 50 to 500 | < 50 | A (a Ki ratio greater than or equal to 10 fold between the Ki in the presence of SAM and the Ki in the presence of MTA) | 1000 to 10000 | 50 to 500
CCOc1nc(N2CCN(C(=O)OC)CC2)ccc1C(=O)NC[C@@H](O)[C@@H]1Cc2ccc(OCc3ocnc3C)cc2CN1 [Compound 17, methyl 4-(6-ethoxy-5-(((R)-2-hydroxy-2-((S)-7-((4-methyloxazol-5-yl)methoxy)-1,2,3,4-tetrahydroisoquinolin-3-yl)ethyl)carbamoyl)pyridin-2-yl)piperazine-1-carboxylate] | < 1000 | A* (an IC50 ratio greater than or equal to 10 fold between the IC50 in the HAP1 MTAP-intact cell line and the HAP1 MTAP-deleted cell line) | 50 to 500 | < 50 | A (a Ki ratio greater than or equal to 10 fold between the Ki in the presence of SAM and the Ki in the presence of MTA) | 1000 to 10000 | 50 to 500
